Publication PMC8325119, “A Novel Class of Functionalized Synthetic Fluoroquinolones with Dual Antiproliferative - Antimicrobial Capacities” (Asian Pacific Journal of Cancer Prevention : APJCP, 2021)
Several values for one entry are separate records, joined by “and”; a condition that tells them apart may be missing. Equal entries are not always repeated. Where two headings read alike, the source gives them in different places.

Key:
A549 cell line = experiment: SRB cytotoxicity assay, A549 lung cancer cell line; conditions: Homo sapiens, A549, 72 h, read-out: Cytotoxicity IC50 value, A549 cell line
Experimental: (§1) All reagents and chemicals of analytical grade were obtained from Sigma (Dorset, UK); unless stated otherwise. All chemicals, reagents and solvents (of analytical grade) were used directly without further purification. MCF7 cell line ATCC® HTB-22™, T47D cell line ATCC® HTB-133™, K562 cell line ATCC® CCL-243™, Panc1 cell line ATCC® CRL-1469™. A375.S2 cell line ATCC® CRL-1872™, A549 cell line ATCC® CCL-185™, HELA cell line ATCC® CCL-2™ were cultured in Dulbecco’s modified eagle’s medium (DMEM). (DMEM) containing foetal bovine serum (FBS) (Bio Whittaker, Verviers, Belgium), 4-(2-hydroxyethyl)-1-piperazine ethane sulfonic acid (HEPES) Buffer, L-glutamine, gentamicin, penicillin, and streptomycin sulphate (Sigma, St. Luis, MO, USA), trypsin, trypan blue, Ciprofloxacin HCl from Aarti drugs Ltd/India, was a kind gift from Pharma International Company- Amman; Fluconazole from Neopharma, United Arab Emirates, a kind gift from Pharmaceutical Research Unit, Amman; Trypon soya agar (TSA), trypon soya broth (TSB), sabouraud dextrose agar (SDA) were obtained from Liofilchem (Italy) or Oxoid LTD (Basingstoke, England), they were reconstituted and sterilized by autoclave at 121 °C for 15 min.
(§2) The cytotoxicity measurements were determined using Sulforhodamine B (SRB) colorimetric assay for cytotoxicity screening. The mechanism of reduction of cell viability was adopted as described previously (Arabiyat et al., 2016a,b; 2017; Alabsi et al., 2018; Jumah, 2018; AlShahrabi et al., 2020). Human periodontal ligament fibroblasts (PDL) are a primary normal cell culture for verification of selective cytotoxicity. […] Selectivity ratio as indicative factor of the safety of compounds was calculated by dividing IC50 of tested compound on normal fibroblasts by IC50 of the same compound on specific pathological cell line (Hoffman et al., 2011).

A375.S2 cell line = experiment: SRB cytotoxicity assay, A375.S2 melanoma cell line; conditions: Homo sapiens, A375-S2, 72 h, read-out: Cytotoxicity IC50 value, A375.S2 cell line
Experimental: as §1, §2

MCF7 cell line = experiment: SRB cytotoxicity assay, MCF7 breast cancer cell line; conditions: Homo sapiens, MCF7, 72 h, read-out: Cytotoxicity IC50 value, MCF7 cell line
Experimental: as §1, §2

HELA cell line = experiment: SRB cytotoxicity assay, HELA cervical cancer cell line; conditions: Homo sapiens, HeLa, 72 h
Experimental: as §1, §2

K562 cell line = experiment: SRB cytotoxicity assay, K562 leukaemia cell line; conditions: Homo sapiens, K562, 72 h
Experimental: as §1, §2

PANC 1 cell line = experiment: SRB cytotoxicity assay, PANC 1 pancreatic cancer cell line; conditions: Homo sapiens, PANC-1, 72 h, read-out: Cytotoxicity IC50 value, PANC 1 cell line
Experimental: as §1, §2

T47D cell line = experiment: cells; conditions: Homo sapiens, T47D, 72 h, read-out: Cytotoxicity IC50 value, T47D cell line
Experimental: as §1, §2

PDL Fibroblasts = experiment: SRB cytotoxicity on normal periodontal ligament fibroblasts, selective cytotoxicity; assay type: cell-based, Human; conditions: for IC50: Homo sapiens, Fibroblast, normal fibroblasts, SRB, 72 h, mean ± SD; for Selectivity index SI (K562): IC50 on PDL fibroblasts divided by IC50 on K562
Experimental: as §2

[1] = read-out: Cytotoxicity IC50 value, HELA cell line, SRB, 72 h, 0.1-200 μg/mL range, mean ± SD, value in brackets
[2] = read-out: Cytotoxicity IC50 value, HELA cell line, SRB, 72 h, 0.1-200 μg/mL range, mean ± SD, NI = lack of cytotoxicity in range
[3] = read-out: Cytotoxicity IC50 value, K562 cell line, SRB, 72 h, 0.1-200 μg/mL range, mean ± SD, value in brackets
[4] = read-out: Cytotoxicity IC50 value, K562 cell line, SRB, 72 h, 0.1-200 μg/mL range, mean ± SD, NI = lack of cytotoxicity in range
[5] = 0.1-200 μg/mL range, NI = lack of cytotoxicity in range

| Structure (SMILES) | IC50 (A549 cell line) | IC50 (A375.S2 cell line) | IC50 (MCF7 cell line) | IC50 (HELA cell line; [1]) [µg/mL] | IC50 (HELA cell line; [2]) | IC50 (K562 cell line; [3]) [µg/mL] | IC50 (K562 cell line; [4]) | IC50 (PANC 1 cell line) | IC50 (T47D cell line) | IC50 (PDL Fibroblasts; [5]) [µM] | IC50 (PDL Fibroblasts; value in brackets) [µg/mL] | Selectivity index SI (K562) (PDL Fibroblasts) | Selectivity index SI (PANC 1) (PDL Fibroblasts; IC50 on PDL fibroblasts divided by IC50 on PANC 1) | Selectivity index SI (A562) (PDL Fibroblasts; IC50 on PDL fibroblasts divided by IC50 on the cell line printed as A562) | Selectivity index SI (HELA) (PDL Fibroblasts; IC50 on PDL fibroblasts divided by IC50 on HELA) |
| --- | --- | --- | --- | --- | --- | --- | --- | --- | --- | --- | --- | --- | --- | --- | --- |
| COc1cccc(-n2nnc3c4c(cc(F)c32)c(=O)c(C(=O)O)cn4C2CC2)c1 [5b, 9-cyclopropyl-4-fluoro-3-(3-methoxy-phenyl)-6-oxo-6,9-dihydro-3H-[1,2, and 3] triazolo [4,5-h] quinoline-7-carboxylic acid] | 196 µM and 77.2 µg/mL | 364 µM and 143 µg/mL | 112 µM and 44.2 µg/mL | 26.3 | 66.9 ± 2.73 µM | 4.56 | 11.6 ± 0.61 µM | 178 µM and 70.2 µg/mL | 18 µM and 7.08 µg/mL | 143 ± 10.8 | 56.4 | 12.35 |  |  |  |
| CCn1cc(C(=O)O)c(=O)c2cc(F)c(Nc3ccc(OC)cc3OC)c([N+](=O)[O-])c21 [11c, 7-(2,4-dimethoxy-phenylamino)-1-ethyl-6-fluoro-8-nitro-4-oxo-1,4-dihydro-quinoline-3-carboxylic acid] | > 200 µg/mL | > 200 µg/mL | > 200 µg/mL |  | > 200 µg/mL |  | > 200 µg/mL | 124 µM and 53.3 µg/mL | 431 µM and 186 µg/mL | 285 ± 28.7 | 123 |  | 2.31 |  |  |
| COc1ccc(Nc2c(F)cc3c(=O)c(C(=O)O)cn(C4CC4)c3c2N)cc1 [4c, 8-amino-1-cyclopropyl-6-fluoro-7-(4-methoxy-phenylamino)-4-oxo-1,4-dihydro-quinoline-3-carboxylic acid] | 5.11 µM and 1.96 µg/mL | 248 µM and 95 µg/mL | 57.4 µM and 22 µg/mL | 97.8 | 255 ± 2.15 µM | 20 | 52.1 ± 6.9 µM | 72.1 µM and 27.6 µg/mL | 77.2 µM and 29.6 µg/mL | 138 ± 8.26 | 53 |  |  | 27.07 |  |
| CCn1cc(C(=O)O)c(=O)c2cc(F)c(Nc3ccccc3OC)c([N+](=O)[O-])c21 [11a, 1-ethyl-6-fluoro-7-(2-methoxy-phenylamino)-8-nitro-4-oxo-1,4-dihydro-quinoline-3 carboxylic acid] | 96.8 µM and 8.84 µg/mL | 1.02 mM and 411 µg/mL | 67.8 µM and 27.2 µg/mL | 41.4 | 103 ± 7.66 µM | 6.38 | 15.9 ± 1.75 µM | 187 µM and 75.2 µg/mL | 22.8 µM and 9.16 µg/mL | 156 ± 11.7 | 62.7 | 9.83 |  |  |  |
| CCCCCCc1ccc(Nc2c(F)cc3c(=O)c(C(=O)O)cn(C4CC4)c3c2[N+](=O)[O-])cc1 [3f, 1-cyclopropyl-6-fluoro-7-(4-hexyl-phenylamino)-8-nitro-4-oxo-1,4-dihydro-quinoline-3-carboxylic acid] | 63.9 µM and 29.9 µg/mL | 63.1 µM and 29.5 µg/mL | 135 µM and 63.3 µg/mL | 3.48 | 7.44 ± 0.78 µM | 30 | 64.1 ± 4.78 µM | 1.67 mM and 779 µg/mL | 141 µM and 66 µg/mL | 119 ± 19.7 | 55.7 |  |  |  | 16.01 |
